Results taken from patent publication US20210017555A1, “METHOD FOR PRODUCING 4-AMINOCINNAMIC ACID, AND VECTOR AND HOST CELL USED IN SAME” (JAPAN SCIENCE AND TECHNOLOGY AGENCY, priority 2018, published 2021).

What was measured:
[1] = Deammonase activity of purified enzymes by absorptiometry; format: biochemical; conditions: purified recombinant enzyme 2 mg/mL, 50 mM Tris-HCl pH 8.6, 0.3 to 9.6 mM substrate, 380 nm, 10 minutes
Method: • Apparatus: BECKMAN COULTER DU800 UV/Vis Spectrophotometer • Amount of enzyme: 2mg/mL • Buffer solution: 50mM Tris-HCl buffer (pH=8.6) • Concentration of substrate: 0.3mM to 9.6mM • Volume: 200μL • Measurement wavelength: From 4-nitrophenylalanine to 380 nm 4-nitrocinnamic acid: From phenylalanine to 305 nm cinnamic acid: • Measurement period: 10 minutes • Measurement temperature: 25° C.
Each of the CamPAL-, LiePAL-, and RgPAL-producing Escherichia coli strains was inoculated to 5 mL of LB medium containing 30 mg/L kanamycin sulfate, and cultured at 28° C. for 16 hours (hereinafter also may be referred to as “preculture”). […]
The enzyme activity was measured and quantified by measuring the absorbance of the reaction product at the absorption wavelength for 10 minutes using an absorptiometer.
Specifically, regarding the deammonase activity for phenylalanine, 2 mg/mL of each of the above enzymes was added to 50 mM Tris-HCl buffer (pH=8.6) containing 0.3 to 9.6 mM phenylalanine to cause reaction, and the change in absorbance at a wavelength of 305 nm resulting from the formation of cinnamic acid was measured for 10 minutes. […]

[2] = Resting-cell reaction of PAL-producing E. coli, 4-nitrophenylalanine to 4-nitrocinnamic acid; format: cell-based, Escherichia coli; conditions: resting cells; for amount of 4-nitrocinnamic acid in the reaction supernatant: 24 hours, 28° C., pH 8.5, 20 mM 4-nitrophenylalanine, versus control Escherichia coli
Method: The CamPAL-, LiePAL-, and RgPAL-producing Escherichia coli strains mentioned above were precultured using 3 mL of LB medium containing 40 mg/L kanamycin sulfate at 28° C. for 16 hours with stirring at 300 rpm. 1 mL of this pre-cultured liquid was inoculated to 100 mL of LB medium containing 40 mg/L of kanamycin sulfate, cultured at 30° C. for 4 hours with shaking at 120 rpm, and after the addition of 0.5 mM of IPTG, incubated further for 20 hours. The obtained bacterial cells were washed twice with a reaction buffer (100 mM Tris-HCl buffer, pH 8.5).
The resting cells obtained were suspended in a reaction buffer and reacted at 28° C. with shaking at 300 rpm. 20 mM of 4-nitrophenylalanine was added to the medium every 24 hours while the reaction was continued. The reaction supernatant was periodically collected to quantify 4-nitrophenylalanine and 4-nitrocinnamic acid.
The supernatant was transferred to a centrifuge tube, collected by centrifugation, and the reaction product was quantified using high performance liquid chromatography (HPLC).
The same experiment was also performed using the host Escherichia coli as a control.

[3] = Search for carbon source for conversion of 4-nitrocinnamic acid to 4-aminocinnamic acid; format: cell-based, Escherichia coli; conditions: glycerol added at 10% (compared with glucose, fructose), 2 g/L 4-nitrocinnamic acid, pH 8, 37° C., 24 hours
Method: The CamPAL-producing Escherichia coli strain described in Example 1 was first precultured for 16 hours in the same manner as in Example 2. 1 mL of this pre-cultured liquid was inoculated to 100 mL of TB medium containing 80 mg/L kanamycin sulfate, cultured at 30° C. for 4 hours with stirring at 120 rpm, and after the addition of 0.1 mM IPTG, cultured further for 16 hours. 2 g/L of 4-nitrocinnamic acid was added to the resultant culture solution, the pH was adjusted to 8 using 2N NaOH, and glucose, fructose, or glycerol was added as a carbon source at a final concentration of 10%. The cells were cultured at 37° C. for 24 hours with stirring at 300 rpm to cause reaction.
During the reaction, the reaction solution was collected, and 4-aminocinnamic acid was quantified. Specifically, the reaction solution was transferred to a centrifuge tube, the supernatant was recovered by centrifugation, and the reaction product was quantified using the HPLC.

[4] = Conversion efficiency by CamPAL at different bacteria mass and substrate mass (resting cells); format: cell-based, Escherichia coli; conditions: cell mass 20 g/L or 30 g/L, substrate mass 21 g/L, 37° C., pH 8.5, 24 hours
Method: The CamPAL-producing Escherichia coli strain described in Example 1 was precultured using 5 mL of LB medium containing 40 mg/L kanamycin sulfate at 28° C. for 16 hours with stirring at 300 rpm. 1 mL of this pre-cultured solution was inoculated to 100 mL of TB medium having the following composition after the addition of 80 mg/L kanamycin sulfate, and cultured at 30° C. for 4 hours with shaking at 120 rpm. After the addition of 0.1 mM of IPTG, the cells were further cultured for 20 hours, recovered from the culture solution by centrifugation, and stored at −80° C. The frozen cells thus obtained were weighed at 10 g/L, 20 g/L and 30 g/L, while the substrate 4-nitrophenylalanine was also weighed at 4.2 g/L, 21 g/L, and 42 g/L.
Each mass of the cells and each mass of the substrate were suspended in a reaction buffer (100 mM Tris-HCl buffer, pH 8.5), and a resting microbial cell reaction was carried out at 37° C. with stirring at 300 rpm. After the reaction for 24 hours, the reaction solution was collected, and the amounts of 4-nitrophenylalanine and 4-nitrocinnamic acid were quantified. For the quantification of each reaction product, the supernatant of the obtained (bacterial cell) reaction solution was transferred to a centrifuge tube, collected by centrifugation, and the reaction product was quantified using the HPLC mentioned above.

[5] = Conversion of 4-nitrophenylalanine to 4-aminocinnamic acid in 1 L jar fermenter; format: cell-based, Escherichia coli; conditions: glycerol 10%, pH 8.5, 37° C., 36 hours, air flow 0.02 L/min
Method: Conversion of 4-nitrophenylalanine to 4-aminocinnamic acid was carried out using a 1 L jar fermenter (manufactured by Biott: BMJ-01), in the presence of glycerol under the conditions mentioned above. Specifically, 5 mL of the preculture liquid of Example 2 was inoculated to a 1 L jar fermenter containing 0.5 L of TB medium supplemented with 80 mg/L kanamycin sulfate, and cultured at 30° C. for 4 hours, with aeration at 0.7 L/min and stirring at 645 rpm. 0.1 mM IPTG was then added, and the culturing was continued for another 20 hours.
After the completion of the culturing, 7 g/L of 4-nitrophenylalanine and glycerol at a final concentration of 10% were added to the culture solution, and the pH was adjusted to 8.5 with 2N NaOH. The reaction was carried out at 37° C. for 36 hours with an air flow rate of 0.02 L/min and stirring at 645 rpm. When the pH dropped below 8.0, 2N NaOH was added. During the reaction, the reaction solution was sampled, and 4-nitrophenylalanine, 4-nitrocinnamic acid and 4-aminocinnamic acid were quantified.

[6] = Conversion of 4-nitrophenylalanine to 4-nitrocinnamic acid in 2 L jar fermenter; format: cell-based, Escherichia coli; conditions: 24 hours
Method: The CamPAL-producing Escherichia coli strain described in Example 1 was used (cell mass: 20 g/L to 30 g/L) was used in a reaction of converting the substrate 4-nitrophenylalanine (group weight 21 g/L) to 4-nitrocinnamic acid, using a 2 L jar fermenter (BNR-C-2LS manufactured by Maruhishi Bio Engineering Co., Ltd.) as a reactor.
Specifically, the CamPAL-producing Escherichia coli strain was precultured using 15 mL of LB medium with […] kanamycin sulfate at 28° C. for 16 hours with stirring at 300 rpm. 12 mL of this preculture liquid was inoculated to a 2 L jar fermenter containing 1.2 L TB medium with 80 mg/L kanamycin sulfate, and cultured at 30° C. for 4 hours with aeration of 3.5 L/min and stirring at 500 rpm. […] The mass of bacterial cells calculated from the value of OD600 was 30 g/L.
After completion of the culture, 21 g/L of 4-nitrophenylalanine was added to the culture medium as the substrate, and the pH was adjusted to 8.5 using a 2N NaOH aqueous solution. […] The reaction solution was collected during the reaction, and 4-nitrophenylalanine and 4-nitrocinnamic acid were quantified as follows: the reaction solution was transferred to a centrifuge tube, the supernatant was recovered by centrifugation, and the reaction product was quantified using HPLC under the above conditions.

Row | Substance | capacity to convert 4-nitrophenylalanine to 4-nitrocinnamic acid [1] | amount of 4-nitrocinnamic acid in the reaction supernatant [2] | amount of 4-aminocinnamic acid obtained [3] | conversion efficiency of 4-nitrophenylalanine to 4-nitrocinnamic acid (yield) [4] | 4-aminocinnamic acid produced from 7 g/L of 4-nitrophenylalanine [5] | 4-nitrocinnamic acid converted from 21 g/L of 4-nitrophenylalanine ([6]; 2 L jar fermenter, cell mass 30 g/L, pH 8.5, 37° C., without aeration) | 4-nitrocinnamic acid converted from 21 g/L of 4-nitrophenylalanine ([6]; same reaction, aeration rate 0.04 L/min) | conversion of 4-nitrophenylalanine to 4-nitrocinnamic acid over time ([2]; 20 mM 4-nitrophenylalanine added every 24 hours)
1 | LiePAL: phenylalanine ammonia-lyase derived from Lithospermum erythrorhizon, SEQ ID NO:3, expressed in E. coli | have a capacity to covert 4-nitrophenylalanine to 4-nitrocinnamic acid | significantly higher than that of the control Escherichia coli | – | – | – | – | – | –
2 | CamPAL: phenylalanine ammonia-lyase derived from Camellia sinensis, SEQ ID NO: 1, expressed in E. coli BL21(DE3) | have a capacity to covert 4-nitrophenylalanine to 4-nitrocinnamic acid | significantly higher than that of the control Escherichia coli | largest amount of 4-aminocinnamic acid was obtained when glycerol was added | ≥ 60% | 4.7 g/L | 18 g/L | 12 g/L | proceeded continuously
